Format in all cases: cell-based
Assay [1] concerns dengue virus (DENV). The assay is described as follows: microbe, parasite or virus in culture. As to conditions: Dengue virus, Vero, 120 h, read-out: Percent viral inhibition DENY.
Assay [2] concerns Chikungunya virus (CHIKV). The assay can be described thus: microbe, parasite or virus in culture. As to conditions: Chikungunya virus, Vero, 48 h, read-out: Percent viral inhibition CHKV.
For assay [3], the system named is Marburg virus (MARV). The assay is described as follows: organism not typed. As to conditions: Vero, 72 h, read-out: Percent viral inhibition MARV.

The inhibition is how much of the control response was suppressed.

Turning to `NCCNc1ccc(Oc2cc(CN3CCOCC3)cc(-c3cc(Cl)cc(Cl)c3)c2)cn1` [Example 99, N1-(5-((3′,5′-dichloro-5-(morpholinomethyl)-[1,1′-biphenyl]-3-yl)oxy)pyridin-2-yl)ethane-1,2-diamine], the inhibition at 1 µM in assay [1] was 15.4%; in assay [2] it was 0%; in assay [3] it was 0%.

In the case of `CN1CCN(c2ncc(Oc3cc(CN4CCC(CB(O)O)CC4)cc(-c4cc(Cl)cc(Cl)c4)n3)cn2)CC1` [Example 318, ((1-((2-(3,5-dichlorophenyl)-6-((2-(4-methylpiperazin-1-yl)pyrimidin-5-yl)oxy)pyridin-4-yl)methyl)piperidin-4-yl)methyl)boronic acid], the inhibition at 1 µM is 44.6% in assay [1], 15.3% in assay [2] and 31.6% in assay [3].

For `C[C@H]1CN(c2ncc(Oc3cc(CN4CCC(CC(=O)O)CC4)cc(-c4cc(Cl)cc(Cl)c4)n3)cn2)CCN1` [Example 159, (S)-2-(1-((2-(3,5-dichlorophenyl)-6-((2-(3-methylpiperazin-1-yl)pyrimidin-5-yl)oxy)pyridin-4-yl)methyl)piperidin-4-yl)acetic acid], the inhibition at 1 µM was 17.5% in assay [1], 22.9% in assay [2] and 49.8% in assay [3].

Take `CNC(=O)NCC1CCN(Cc2cc(Oc3cnc(N4CCN(C[C@@H](C)O)CC4)nc3)nc(-c3cc(Cl)cc(Cl)c3)c2)CC1` [Example 310, (R)-1-((1-((2-(3,5-dichlorophenyl)-6-((2-(4-(2-hydroxypropyl)piperazin-1-yl)pyrimidin-5-yl)oxy)pyridin-4-yl)methyl)piperidin-4-yl)methyl)-3-methylurea]: the inhibition at 1 µM came out at 19.3% in assay [1], 2.85% in assay [2] and 18% in assay [3].

As to `CC(=O)NCC1CCN(Cc2cc(Oc3cnc(N4CCN(C5CC(C(=O)O)C5)CC4)nc3)nc(-c3cc(Cl)cc(Cl)c3)c2)CC1` (stereo not drawn) [Example 216], the inhibition at 1 µM in assay [1] worked out at 8.34%; in assay [2], 21.4%; in assay [3] it was 38.5%.

In the case of `CNC(=O)OCC1CCN(Cc2cc(Oc3ccc(N4CCN(CCC(=O)O)CC4)nc3)nc(-c3cc(Cl)cc(Cl)c3)c2)CC1` [Example 77, 3-(4-(5-((6-(3,5-dichlorophenyl)-4-((4-(((methylcarbamoyl)oxy)methyl)piperidin-1-yl)methyl)pyridin-2-yl)oxy)pyridin-2-yl)piperazin-1-yl) propanoic acid], the inhibition at 1 µM was 20.6% in assay [1], 42% in assay [2] and 57.2% in assay [3].

In the case of `CNC(=O)NCC1CCN(Cc2cc(Oc3cnc(N4CCN(CCCS(N)(=O)=O)CC4)nc3)nc(-c3cc(Cl)cc(Cl)c3)c2)CC1` [Example 48, 3-(4-(5-((6-(3,5-dichlorophenyl)-4-((4-((3-methylureido)methyl)piperidin-1-yl)methyl)pyridin-2-yl)oxy)pyrimidin-2-yl)piperazin-1-yl)propane-1-sulfonamide], the figures for the inhibition at 1 µM in assay [1], in assay [2] and in assay [3] were 26%, 15.2% and 15.7%, respectively.

Consider `CC(=O)N[C@H]1[C@@H]2CCN(Cc3cc(Oc4cnc(N5CCN(CCC(C)C(=O)O)CC5)nc4)nc(-c4cc(Cl)cc(Cl)c4)c3)CC[C@@H]21` (stereo partly drawn) [Example 82, 4-(4-(5-((4-(((1R,7S,8r)-8-acetamido-4-azabicyclo[5.1.0]octan-4-yl)methyl)-6-(3,5-dichlorophenyl)pyridin-2-yl)oxy)pyrimidin-2-yl)piperazin-1-yl)-2-methylbutanoic acid], for which the inhibition at 1 µM is 19.8% in assay [1], 18.4% in assay [2] and 53.2% in assay [3].

As to `CNC(=O)OCC1CCN(Cc2cc(Oc3cnc(N4CCN(C(C)CCC(=O)O)CC4)nc3)nc(-c3cc(Cl)cc(Cl)c3)c2)CC1` (stereo not drawn) [Example 208, 4-(4-(5-((6-(3,5-dichlorophenyl)-4-((4-(((methylcarbamoyl)oxy)methyl)piperidin-1-yl)methyl)pyridin-2-yl)oxy)pyrimidin-2-yl)piperazin-1-yl)pentanoic acid], the inhibition at 1 µM in assay [1] was 68.6%; in assay [2], 46.3%; in assay [3], 55.2%.

As to `CN1CC2CN(c3ncc(Oc4cc(CN5CCC(CC(=O)O)CC5)cc(-c5cc(Cl)cc(Cl)c5)n4)cn3)CC2C1` (stereo not drawn) [Example 133, 2-(1-((2-(3,5-dichlorophenyl)-6-((2-(5-methylhexahydropyrrolo[3,4-c]pyrrol-2(1H)-yl)pyrimidin-5-yl)oxy)pyridin-4-yl)methyl)piperidin-4-yl)acetic acid], the inhibition at 1 µM was found to be 47.8% in assay [1], 43.4% in assay [2] and 54% in assay [3].

With `NS(=O)(=O)CCCN1CCN(c2ncc(Oc3cc(CN4CCC(CC(=O)O)CC4)cc(-c4cc(Cl)cc(Cl)c4)n3)cn2)CC1` [Example 246, 2-(1-((2-(3,5-dichlorophenyl)-6-((2-(4-(3-sulfamoylpropyl)piperazin-1-yl)pyrimidin-5-yl)oxy)pyridin-4-yl)methyl)piperidin-4-yl)acetic acid], the figures for the inhibition at 1 µM in assay [1], in assay [2] and in assay [3] were 50.8%, 24.6% and 39.9%, respectively.

In the case of `O=C(O)CC1CCN(Cc2cc(Oc3cnc(N4CCN(Cc5cnn[nH]5)CC4)nc3)nc(-c3cc(Cl)cc(Cl)c3)c2)CC1` [Example 387, 2-(1-((2-((2-(4-((1H-l,2,3-triazol-5-yl)methyl)piperazin-1-yl)pyrimidin-5-yl)oxy)-6-(3,5-dichlorophenyl)pyridin-4-yl)methyl)piperidin-4-yl)acetic acid], the figures for the inhibition at 1 µM in assay [1], in assay [2] and in assay [3] were 39.9%, 36.3% and 41.4%, respectively.

For `CC(=O)NCC1CCN(Cc2cc(Oc3ccc(N4CCN(CCc5nnn[nH]5)CC4)nc3)nc(-c3cc(Cl)cc(Cl)c3)c2)CC1` [Example 14], the inhibition at 1 µM in assay [1] came out at 0%; in assay [2], 3.02%; in assay [3], 17.3%.

`CCOC(=O)NCC1CCN(Cc2cc(Oc3cnc(N4CCN(CCC(=O)O)CC4)nc3)nc(-c3cc(Cl)cc(Cl)c3)c2)CC1` [Example 267, 3-(4-(5-((6-(3,5-dichlorophenyl)-4-((4-(((ethoxycarbonyl)amino)methyl)piperidin-1-yl)methyl)pyridin-2-yl)oxy)pyrimidin-2-yl)piperazin-1-yl) propanoic acid]: the inhibition at 1 µM was found to be 37% in assay [1], 34.6% in assay [2] and 65% in assay [3].

Turning to `COC(=O)NCC1(O)CCN(Cc2cc(Oc3ccc(N4CCNCC4)nc3)nc(-c3cc(Cl)cc(Cl)c3)c2)CC1` [Example 6, methyl ((1-((2-(3,5-dichlorophenyl)-6-((6-(piperazin-1-yl)pyridin-3-yl)oxy)pyridin-4-yl)methyl)-4-hydroxypiperidin-4-yl)methyl)carbamate], the inhibition at 1 µM in assay [1], in assay [2] and in assay [3] was 0% each time.

As for `CC(=O)NCC1CCN(Cc2cc(Oc3cnc(N4CCN(CC(O)CF)CC4)nc3)nc(-c3cc(Cl)cc(Cl)c3)c2)CC1` (stereo not drawn) [Example 304, N-((1-((2-(3,5-dichlorophenyl)-6-((2-(4-(3-fluoro-2-hydroxypropyl)piperazin-1-yl)pyrimidin-5-yl)oxy)pyridin-4-yl)methyl)piperidin-4-yl)methyl)acetamide], the inhibition at 1 µM in assay [1] was 41.8%; in assay [2], 0%; in assay [3], 12.4%.

With `O=C(O)CC1CCN(Cc2cc(Oc3cnc(N4CCN5CCC4C5)nc3)nc(-c3cc(Cl)cc(Cl)c3)c2)CC1` (stereo not drawn) [Example 334, 2-(1-((2-((2-(1,4-diazabicyclo[3.2.1]octan-4-yl)pyrimidin-5-yl)oxy)-6-(3,5-dichlorophenyl)pyridin-4-yl)methyl)piperidin-4-yl)acetic acid], the inhibition at 1 µM in assay [1] was found to be 20.8%; in assay [2] it was 29.6%; in assay [3], 41.4%.

For `CC(=O)NCC1CCN(Cc2cc(Oc3ccc(N4CCN([C@H]5C[C@@H](NS(C)(=O)=O)C5)CC4)nc3)nc(-c3cc(Cl)cc(Cl)c3)c2)CC1` [Example 27, N-((1-((2-(3,5-dichlorophenyl)-6-((6-(4-((cis)-3-(methylsulfonamido)cyclobutyl)piperazin-1-yl)pyridin-3-yl)oxy)pyridin-4-yl)methyl)piperidin-4-yl)methyl)acetamide], the results for the inhibition at 1 µM in assay [1], in assay [2] and in assay [3] were 51.1%, 26.8% and 50.3%, respectively.

Consider `CC(=O)NCC1CCN(Cc2cc(Oc3cnc(N4CCN(CCCS(C)(=O)=O)CC4)nc3)nc(-c3cc(Cl)cc(Cl)c3)c2)CC1` [Example 259, N-((1-((2-(3,5-dichlorophenyl)-6-((2-(4-(3-(methylsulfonyl)propyl)piperazin-1-yl)pyrimidin-5-yl)oxy)pyridin-4-yl)methyl)piperidin-4-yl)methyl)acetamide], for which the inhibition at 1 µM stood at 47% in assay [1], 15% in assay [2] and 67.2% in assay [3].

As to `CNC(=O)NCC1CCN(Cc2cc(Oc3cnc(N4CCN(CCCS(C)(=O)=O)CC4)nc3)nc(-c3cc(Cl)cc(Cl)c3)c2)CC1` [Example 257, 1-((1-((2-(3,5-dichlorophenyl)-6-((2-(4-(3-(methylsulfonyl)propyl)piperazin-1-yl)pyrimidin-5-yl)oxy)pyridin-4-yl)methyl)piperidin-4-yl)methyl)-3-methylurea], the inhibition at 1 µM in assay [1] stood at 46.5%; in assay [2], 10.3%; in assay [3], 26.5%.

For the compound `CC(CC1CCN(Cc2cc(Oc3cnc(N4CCN(C[C@@H](C)O)CC4)nc3)nc(-c3cc(Cl)cc(Cl)c3)c2)CC1)C(=O)O` (stereo partly drawn) [Example 301, 3-(1-((2-(3,5-dichlorophenyl)-6-((2-(4-((R)-2-hydroxypropyl)piperazin-1-yl)pyrimidin-5-yl)oxy)pyridin-4-yl)methyl)piperidin-4-yl)-2-methylpropanoic acid], the inhibition at 1 µM in assay [1] turned out to be 56.1%; in assay [2], 28.8%; in assay [3], 68.4%.

(Values after patent US20230011571A1, “SMALL MOLECULE FURIN INHIBITORS FOR TREATING INFECTIOUS DISEASES” (BP Asset V, Inc., priority 2019, published 2023).)
